In US4112228A, “7-(D-α-Hydroxy-2-arylacetamido)-3-(2-carboxyalkyl-2,3-dihydro-s-tri azolo-[4,3-b]pyridazin-3-on-6-ylthiomethyl)-3-cephem-4-carboxylic acids and derivatives” (priority 1977, dated 1978):
In brackets after ≈: the same amount, converted by molar mass. Where two headings read alike, the source gives them in different places.

Legend:
E. coli = experiment: MIC by Steers' agar dilution method; type: cell-based; settings: Escherichia coli
Kl. pneumoniae = experiment: MIC by Steers' agar dilution method; type: cell-based; settings: Klebsiella pneumoniae

## Cn1nnnc1SCC1=C(C(=O)O)N2C(=O)[C@@H](NC(=O)[C@H](O)c3ccccc3)[C@H]2SC1 [Cefamandole, cefamandole, reference compound]
E. coli; A9660, MHA, Table 1, read-out: MIC
  MIC: 0.1 µg/mL (≈ 0.216 µM)
E. coli; A15147, MHA, Table 1, read-out: MIC
  MIC: 0.4 µg/mL (≈ 0.865 µM)
E. coli; A15810, MHA, Table 1, read-out: MIC
  MIC: 0.4 µg/mL (≈ 0.865 µM)
E. coli; ATCC8739, ATCC 8739, MHA, Example 10
  MIC: 3.1 µg/mL (≈ 6.7 µM)
E. coli; ATCC8739, ATCC 8739, MHA, Table 1, read-out: MIC
  MIC: 0.05 µg/mL (≈ 0.108 µM)
E. coli; ATCC8739, Ec-15 ATCC 8739, HIA, Table 4, read-out: MIC
  MIC: 0.1 µg/mL (≈ 0.216 µM)
E. coli; ATCC8739, Ec-15 ATCC 8739, MHA, Table 3, read-out: MIC
  MIC: 0.1 µg/mL (≈ 0.216 µM)
E. coli; ATCC8739, Ec-15 ATCC 8739, MHA, Table 4, read-out: MIC
  MIC: 0.1 µg/mL (≈ 0.216 µM)
E. coli; ATCC8739, Ec-15 ATCC 8739, NA, Table 4, read-out: MIC
  MIC: 0.1 µg/mL (≈ 0.216 µM)
E. coli; BX-1373, MHA, Example 10, read-out: MIC
  MIC: 3.1 µg/mL (≈ 6.7 µM)
E. coli; BX-1373, MHA, Table 1, read-out: MIC
  MIC: 0.8 µg/mL (≈ 1.73 µM)
E. coli; Ec-1 NIHJ, HIA, Table 4, read-out: MIC
  MIC: 0.1 µg/mL (≈ 0.216 µM)
E. coli; Ec-1 NIHJ, MHA, Table 3, read-out: MIC
  MIC: 0.1 µg/mL (≈ 0.216 µM)
E. coli; Ec-1 NIHJ, MHA, Table 4, read-out: MIC
  MIC: 0.05 µg/mL (≈ 0.108 µM)
E. coli; Ec-1 NIHJ, NA, Table 4, read-out: MIC
  MIC: 0.1 µg/mL (≈ 0.216 µM)
E. coli; Ec-3 Juhl A15119, HIA, Table 4, read-out: MIC
  MIC: 0.4 µg/mL (≈ 0.865 µM)
E. coli; Ec-3 Juhl A15119, MHA, Table 3, read-out: MIC
  MIC: 0.8 µg/mL (≈ 1.73 µM)
E. coli; Ec-3 Juhl A15119, MHA, Table 4, read-out: MIC
  MIC: 0.4 µg/mL (≈ 0.865 µM)
E. coli; Ec-3 Juhl A15119, NA, Table 4, read-out: MIC
  MIC: 0.2 µg/mL (≈ 0.432 µM)
E. coli; Ec-4 A15169, MHA, Table 3, read-out: MIC
  MIC: 6.3 µg/mL (≈ 13.6 µM)
E. coli; Ec-5 K-12, ML-1630 A20363, MHA, Table 3, read-out: MIC
  MIC: 0.8 µg/mL (≈ 1.73 µM)
E. coli; Ec-11 A20366 (β-lactamase), HIA, Table 4, read-out: MIC
  MIC: 25 µg/mL (≈ 54.1 µM)
E. coli; Ec-11 A20366 (β-lactamase), MHA, Table 4, read-out: MIC
  MIC: 50 µg/mL (≈ 108 µM)
E. coli; Ec-11 A20366 (β-lactamase), NA, Table 4, read-out: MIC
  MIC: 50 µg/mL (≈ 108 µM)
E. coli; Ec-11 A20366, MHA, Table 3, read-out: MIC
  MIC: 25 µg/mL (≈ 54.1 µM)
E. coli; Ec-34 A9660, MHA, Table 3, read-out: MIC
  MIC: 0.1 µg/mL (≈ 0.216 µM)
E. coli; Ec-35 A9435, MHA, Table 3, read-out: MIC
  MIC: 0.8 µg/mL (≈ 1.73 µM)
E. coli; Ec-36 A15147 (β-lactamase), HIA, Table 4, read-out: MIC
  MIC: 3.1 µg/mL (≈ 6.7 µM)
E. coli; Ec-36 A15147 (β-lactamase), MHA, Table 4, read-out: MIC
  MIC: 3.1 µg/mL (≈ 6.7 µM)
E. coli; Ec-36 A15147 (β-lactamase), NA, Table 4, read-out: MIC
  MIC: 1.6 µg/mL (≈ 3.46 µM)
E. coli; Ec-36 A15147, MHA, Table 3, read-out: MIC
  MIC: 1.6 µg/mL (≈ 3.46 µM)
E. coli; Ec-40 A20361, MHA, Table 3, read-out: MIC
  MIC: 0.8 µg/mL (≈ 1.73 µM)
E. coli; Ec-44 A9535, MHA, Table 3, read-out: MIC
  MIC: 0.1 µg/mL (≈ 0.216 µM)
E. coli; Ec-45 A15148, MHA, Table 3, read-out: MIC
  MIC: 1.6 µg/mL (≈ 3.46 µM)
E. coli; Ec-46 A15164 (β-lactamase), HIA, Table 4, read-out: MIC
  MIC: 12.5 µg/mL (≈ 27 µM)
E. coli; Ec-46 A15164 (β-lactamase), MHA, Table 4, read-out: MIC
  MIC: 12.5 µg/mL (≈ 27 µM)
E. coli; Ec-46 A15164 (β-lactamase), NA, Table 4, read-out: MIC
  MIC: 25 µg/mL (≈ 54.1 µM)
E. coli; Ec-46 A15164, MHA, Table 3, read-out: MIC
  MIC: 12.5 µg/mL (≈ 27 µM)
E. coli; Ec-47 A15170, MHA, Table 3, read-out: MIC
  MIC: 50 µg/mL (≈ 108 µM)
E. coli; Ec-49 A20107, MHA, Table 3, read-out: MIC
  MIC: 0.2 µg/mL (≈ 0.432 µM)
E. coli; Ec-50 A20109, MHA, Table 3, read-out: MIC
  MIC: 0.8 µg/mL (≈ 1.73 µM)
E. coli; Ec-51 A20343 (β-lactamase), HIA, Table 4, read-out: MIC
  MIC: 25 µg/mL (≈ 54.1 µM)
E. coli; Ec-51 A20343 (β-lactamase), MHA, Table 4, read-out: MIC
  MIC: 25 µg/mL (≈ 54.1 µM)
E. coli; Ec-51 A20343 (β-lactamase), NA, Table 4, read-out: MIC
  MIC: 12.5 µg/mL (≈ 27 µM)
E. coli; Ec-51 A20343, MHA, Table 3, read-out: MIC
  MIC: 12.5 µg/mL (≈ 27 µM)
E. coli; Ec-56 A20365, MHA, Table 3, read-out: MIC
  MIC: 12.5 µg/mL (≈ 27 µM)
E. coli; Ec-58 A9675, MHA, Table 3, read-out: MIC
  MIC: 1.6 µg/mL (≈ 3.46 µM)
E. coli; Ec-59 A20766, MHA, Table 3, read-out: MIC
  MIC: 0.8 µg/mL (≈ 1.73 µM)
E. coli; Ec-62 A20895, MHA, Table 3, read-out: MIC
  MIC: 0.8 µg/mL (≈ 1.73 µM)
E. coli; Juhl A15119, MHA, Table 1, read-out: MIC
  MIC: 0.4 µg/mL (≈ 0.865 µM)
E. coli; Juhl, MHA, Example 10, read-out: MIC
  MIC: 0.8 µg/mL (≈ 1.73 µM)
E. coli; NIHJ, MHA, Example 10, read-out: MIC
  MIC: 0.05 µg/mL (≈ 0.108 µM)
E. coli; NIHJ, MHA, Table 1, read-out: MIC
  MIC: 0.025 µg/mL (≈ 0.0541 µM)
E. coli; strain not named (1st of 3), MHA, Example 10, read-out: MIC
  MIC: 0.1 µg/mL (≈ 0.216 µM)
E. coli; strain not named (2nd of 3), MHA, Example 10, read-out: MIC
  MIC: 0.1 µg/mL (≈ 0.216 µM)
E. coli; strain not named (3rd of 3), MHA, Example 10, read-out: MIC
  MIC: 1.6 µg/mL (≈ 3.46 µM)
Kl. pneumoniae; A9678, MHA, Table 1
  MIC: 3.1 µg/mL (≈ 6.7 µM)
Kl. pneumoniae; A9867, MHA, Table 1
  MIC: 0.8 µg/mL (≈ 1.73 µM)
Kl. pneumoniae; A9977, MHA, Table 1
  MIC: 0.2 µg/mL (≈ 0.432 µM)
Kl. pneumoniae; A15130, MHA, Table 1
  MIC: 0.8 µg/mL (≈ 1.73 µM)
Kl. pneumoniae; Kp-1 D11, MHA, Table 3
  MIC: 0.8 µg/mL (≈ 1.73 µM)
Kl. pneumoniae; Kp-2 A9678, MHA, Table 3
  MIC: 1.6 µg/mL (≈ 3.46 µM)
Kl. pneumoniae; Kp-3 A9977, HIA, Table 4
  MIC: 0.8 µg/mL (≈ 1.73 µM)
Kl. pneumoniae; Kp-3 A9977, MHA, Table 3
  MIC: 0.8 µg/mL (≈ 1.73 µM)
Kl. pneumoniae; Kp-3 A9977, MHA, Table 4
  MIC: 0.8 µg/mL (≈ 1.73 µM)
Kl. pneumoniae; Kp-3 A9977, NA, Table 4
  MIC: 0.4 µg/mL (≈ 0.865 µM)
Kl. pneumoniae; Kp-4 A15130, HIA, Table 4
  MIC: 0.8 µg/mL (≈ 1.73 µM)
Kl. pneumoniae; Kp-4 A15130, MHA, Table 3
  MIC: 0.8 µg/mL (≈ 1.73 µM)
Kl. pneumoniae; Kp-4 A15130, MHA, Table 4
  MIC: 0.8 µg/mL (≈ 1.73 µM)
